# Experimental data reported in patent publication US9101160B2, “Condiments with high-potency sweetener” (The Coca-Cola Company, priority 2005, dated 2015).
# Format: physicochemical
# Method: A solution of rebaudioside A ( >97% pure by HPLC ) was prepared in double distilled water (12.5 gm in 50 mL, 25% concentration) by stirring the mixture at 40° C. for 5 minutes. An amorphous form of rebaudioside A was formed by immediately using the clear solution for spray drying with the Lab-Plant spray drier SD-04 instrument (Lab-Plant Ltd., West Yorkshire, U.K.). The solution was fed through the feed pump into the nozzle atomizer which atomized it into a spray of droplets with the help of a constant flow of nitrogen/air. […] This dry powder (11-12 g, H2O 6.74%) was discharged continuously from the drying chamber and was collected in a bottle.
substance,measurement,value
rebaudioside A [Form 4],solubility in water at room temperature,> 35.0%
